The source of these data is ChEMBL document CHEMBL1159266, “Antineoplastic agents, 325. Isolation and structure of the human cancer cell growth inhibitory cyclic octapeptides phakellistatin 10 and 11 from Phakellia sp” (1995).

Holding throughout (format): functional
One assay concerns L1210. In words: Cytotoxicity against mouse L1210 cells. The following applies: read-out: ED50 (the source's name).
The test system of the next assay is P388. In words: Cytotoxicity against mouse P388 cells. The settings on record: read-out: ED50 (the source's name).
A short description of assay [1]: Growth inhibition of human NCI60 cells.

Converted amounts (≈) assume the structure as drawn. Where a SMILES comes first, the peptide text is derived from it.

Take `CC(C)C[C@@H]1NC(=O)[C@@H]2CCCN2C(=O)[C@H](C(C)C)NC(=O)[C@H](Cc2c[nH]c3ccccc23)NC(=O)[C@@H]2CCCN2C(=O)[C@H](CC(C)C)NC(=O)[C@@H]2CCCN2C(=O)[C@H]([C@@H](C)O)NC1=O` [HYMENAMIDE H] (cyclo(LPWVPLTP)): the EC50 in the assay on L1210 amounted to 6.3 µg/mL (≈ 6.97 µM). Same read-out and setting: to `CC(C)[C@@H]1NC(=O)[C@H](CCCCN)NC(=O)[C@H](Cc2c[nH]c3ccccc23)NC(=O)[C@H](Cc2ccccc2)NC(=O)[C@H](CC(=O)O)NC(=O)[C@H](Cc2ccc(O)cc2)NC(=O)[C@@H]2CCCN2C(=O)[C@H](Cc2ccc(O)cc2)NC1=O` [HYMENAMIDE J] (cyclo(DFWKVYPY)) belongs 2.6 µg/mL (≈ 2.37 µM). `CC[C@H](C)[C@@H]1NC(=O)[C@H](Cc2ccccc2)NC(=O)[C@@H]2CCCN2C(=O)[C@H](Cc2ccccc2)NC(=O)[C@@H]2CCCN2C(=O)[C@H](CCC(N)=O)NC(=O)[C@@H]2CCCN2C(=O)[C@H](Cc2ccccc2)NC1=O` [PHAKELLI STATIN 11] (cyclo(FIFPQPFP)): in the assay with P388, the EC50 was 0.2 µg/mL (≈ 0.205 µM). Moreover, the GI50 (in general, the concentration giving 50% growth inhibition) in assay [1] came to 132 nM. Taken in the same sequence, the figures for `CC[C@H](C)[C@@H]1NC(=O)[C@@H]2CCCN2C(=O)[C@H]([C@@H](C)O)NC(=O)[C@H](CC(C)C)NC(=O)[C@@H]2CCCN2C(=O)[C@H](C(C)C)NC(=O)[C@H](Cc2ccc(O)cc2)NC(=O)[C@@H]2CCCN2C1=O` [PHAKELLISTATIN 10] (cyclo(IPYVPLTP)) were 2.1 µg/mL (≈ 2.38 µM) and 790 nM.
